For 13 molecules, IC50 results are on record in patent US10633419B2, “Immunomodulators” (BRISTOL-MYERS SQUIBB COMPANY, priority 2014, dated 2020).

Positions of bridges follow the written chain, without caps; N, C: chain ends. Non-standard residues stand in square brackets, D forms with d. Residues, ends and D or L forms follow the SMILES beside them. *: point of attachment. Trp(1-CH2COOH) = N[C@@H](Cc1cn(CC(=O)O)c2ccccc12)C(=O)O; X8 = O=C(O)CCCCCCCCCCCCNC(=O)CCC(=O)NCCCOCCOCCOCCCN*; d(cisHyp) = O=C(O)[C@H]1C[C@@H](O)CN1; NH(CH2)12COOH = O=C(O)CCCCCCCCCCCCN*; cisHyp = O=C(O)[C@@H]1C[C@H](O)CN1; Hyp = O=C(O)[C@@H]1C[C@@H](O)CN1; NMeNle = CCCC[C@H](NC)C(=O)O; X20 = O=C(O)CCCCCCCCCCCCCN*; NMeA = CN[C@@H](C)C(=O)O; Dab = NCC[C@H](N)C(=O)O; Dap = NC[C@H](N)C(=O)O

T1 sequence (Q9NZQ7 with tags, fused parts or gaps): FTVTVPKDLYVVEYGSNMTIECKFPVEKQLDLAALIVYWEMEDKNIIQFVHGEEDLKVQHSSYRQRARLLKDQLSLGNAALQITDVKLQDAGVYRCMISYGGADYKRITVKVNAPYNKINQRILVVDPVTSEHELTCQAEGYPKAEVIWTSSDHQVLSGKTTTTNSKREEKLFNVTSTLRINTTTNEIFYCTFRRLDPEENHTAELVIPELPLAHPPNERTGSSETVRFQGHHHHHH

The experiment has as its target T1, PD-L1 (Homo sapiens, UniProt Q9NZQ7).
T1 construct: hPDL1(19-239)-TVMV-His; made in house; host or cells: HEK293T
Briefly: PD-1/PD-L1 Homogenous Time-Resolved Fluorescence (HTRF) binding assay (PD-1-Ig/PD-L1-His). The conditions noted are these: inhibition of PD-1-Ig binding to PD-L1-TVMV-His; value given as range class; read-out: HTRF IC50. The procedure, abridged: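 Inhibitors pre-incubated 15 min with PD-L1-His (10 nM final), then PD-1-Ig (20 nM final) added for 15 min in dPBS/0.1% BSA/0.05% Tween-20. Eu-cryptate anti-Ig (1 nM) and APC anti-His (20 nM) added, 30 min equilibration, 665/620 nm HTRF ratio read.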
(In TR-FRET formats the signal depends on donor and acceptor labels being close together.)
As to `CCCC[C@H]1C(=O)N(C)[C@@H](CCCC)C(=O)N[C@@H](CC(C)C)C(=O)N[C@H](C(=O)NCC(=O)NCC(=O)N[C@@H](CC(=O)O)C(=O)NCCCCCCCCCCCCCC(=O)O)CSCC(=O)N[C@@H](Cc2ccc(O)cc2)C(=O)N(C)[C@@H](C)C(=O)N[C@@H](CC(N)=O)C(=O)N2CCC[C@H]2C(=O)N[C@@H](CN)C(=O)N[C@@H](CC(C)C)C(=O)N2C[C@H](O)C[C@@H]2C(=O)N[C@@H](Cc2c[nH]c3ccccc23)C(=O)N[C@@H](CCN)C(=O)N[C@@H](Cc2cn(CC(=O)O)c3ccccc23)C(=O)N1C` [Example 11201] ({CH2CO}-Y[NMeA]NP[Dap]L[d(cisHyp)]W[Dab][Trp(1-CH2COOH)][NMeNle][NMeNle]LCGGD-X20; thioether N-14), the IC50 (commonly the concentration needed to halve the response being measured) is 0.01 to 0.099 µM.

As to `CCCC[C@H]1C(=O)N(C)[C@@H](CCCC)C(=O)N[C@@H](CC(C)C)C(=O)N[C@H](C(=O)NCCCCCCCCCCCCC(=O)O)CSCC(=O)N[C@@H](Cc2ccc(O)cc2)C(=O)N(C)[C@@H](C)C(=O)N[C@@H](CC(N)=O)C(=O)N2CCC[C@@H]2C(=O)N[C@@H](CN)C(=O)N[C@@H](CC(C)C)C(=O)N2C[C@@H](O)C[C@H]2C(=O)N[C@@H](Cc2c[nH]c3ccccc23)C(=O)N[C@@H](CCN)C(=O)N[C@@H](Cc2cn(CC(=O)O)c3ccccc23)C(=O)N1C` [Example 11204] ({CH2CO}-Y[NMeA]N[dP][Dap]L[cisHyp]W[Dab][Trp(1-CH2COOH)][NMeNle][NMeNle]LC-{NH(CH2)12COOH}; thioether N-14), the IC50 lay within 0.01 to 0.099 µM.

For the molecule `CCCC[C@H]1C(=O)N(C)[C@@H](CCCC)C(=O)N[C@@H](CC(C)C)C(=O)N[C@H](C(=O)N[C@H](CC(=O)O)C(=O)NCC(=O)NCCCCCCCCCCCCC(=O)O)CSCC(=O)N[C@@H](Cc2ccc(O)cc2)C(=O)N(C)[C@@H](C)C(=O)N[C@@H](CC(=O)O)C(=O)N2CCC[C@@H]2C(=O)N[C@@H](Cc2cnc[nH]2)C(=O)N[C@@H](CCCCN)C(=O)N2C[C@@H](O)C[C@H]2C(=O)N[C@@H](Cc2c[nH]c3ccccc23)C(=O)N[C@@H](CCCCN)C(=O)N[C@@H](Cc2cn(CC(=O)O)c3ccccc23)C(=O)N1C` [Example 11211] ({CH2CO}-Y[NMeA]D[dP]HK[cisHyp]WK[Trp(1-CH2COOH)][NMeNle][NMeNle]LC[dD]G-{NH(CH2)12COOH}; thioether N-14), the IC50 is 0.0003 to 0.0099 µM.

For the molecule `CCCC[C@H]1C(=O)N(C)[C@@H](CCCC)C(=O)N[C@@H](CC(C)C)C(=O)N[C@H](C(=O)NCC(=O)N[C@@H](CC(=O)O)C(=O)NCCCCCCCCCCCCC(=O)O)CSCC(=O)N[C@@H](Cc2ccc(O)cc2)C(=O)N(C)[C@@H](C)C(=O)N[C@@H](CC(=O)O)C(=O)N2CCC[C@H]2C(=O)N[C@@H](Cc2cnc[nH]2)C(=O)N[C@@H](CCCCN)C(=O)N2C[C@H](O)C[C@H]2C(=O)N[C@@H](Cc2c[nH]c3ccccc23)C(=O)N[C@@H](CCCCN)C(=O)N[C@@H](Cc2cn(CC(=O)O)c3ccccc23)C(=O)N1C` [Example 11213] ({CH2CO}-Y[NMeA]DPHK[Hyp]WK[Trp(1-CH2COOH)][NMeNle][NMeNle]LCGD-{NH(CH2)12COOH}; thioether N-14), the IC50 lay in the range of 0.01 to 0.099 µM.

As to `CCCC[C@H]1C(=O)N(C)[C@@H](CCCC)C(=O)N[C@@H](CC(C)C)C(=O)N[C@H](C(=O)NCCCOCCOCCOCCCNC(=O)CCC(=O)NCCCCCCCCCCCCC(=O)O)CSCC(=O)N[C@@H](Cc2ccc(O)cc2)C(=O)N(C)[C@@H](C)C(=O)N[C@@H](CC(N)=O)C(=O)N2CCC[C@H]2C(=O)N[C@@H](CN)C(=O)N[C@@H](CC(C)C)C(=O)N2C[C@H](O)C[C@H]2C(=O)N[C@@H](Cc2c[nH]c3ccccc23)C(=O)N[C@@H](CCN)C(=O)N[C@@H](Cc2cn(CC(=O)O)c3ccccc23)C(=O)N1C` [Example 11214] ({CH2CO}-Y[NMeA]NP[Dap]L[Hyp]W[Dab][Trp(1-CH2COOH)][NMeNle][NMeNle]LC-X8; thioether N-14), the IC50 lay in the range of 0.01 to 0.099 µM.

As for `CCCC[C@H]1C(=O)N(C)[C@@H](CCCC)C(=O)N[C@@H](CC(C)C)C(=O)N[C@H](C(=O)NCC(=O)NCC(=O)NCC(=O)NCCCCCCCCCCCCC(=O)O)CSCC(=O)N[C@@H](Cc2ccc(O)cc2)C(=O)N(C)[C@@H](C)C(=O)N[C@@H](CC(N)=O)C(=O)N2CCC[C@H]2C(=O)N[C@@H](CN)C(=O)N[C@@H](CC(C)C)C(=O)N2C[C@H](O)C[C@H]2C(=O)N[C@@H](Cc2c[nH]c3ccccc23)C(=O)N[C@@H](CCN)C(=O)N[C@@H](Cc2cn(CC(=O)O)c3ccccc23)C(=O)N1C` [Example 11215] ({CH2CO}-Y[NMeA]NP[Dap]L[Hyp]W[Dab][Trp(1-CH2COOH)][NMeNle][NMeNle]LCGGG-{NH(CH2)12COOH}; thioether N-14), the IC50 is 0.01 to 0.099 µM.

In the case of `CCCC[C@H]1C(=O)N(C)[C@@H](CCCC)C(=O)N[C@@H](CC(C)C)C(=O)N[C@H](C(=O)NCC(=O)NCC(=O)NCC(=O)NCCCCCCCCCCCCC(=O)O)CSCC(=O)N[C@@H](Cc2ccc(O)cc2)C(=O)N(C)[C@@H](C)C(=O)N[C@@H](CC(=O)O)C(=O)N2CCC[C@H]2C(=O)N[C@@H](Cc2cnc[nH]2)C(=O)N[C@@H](CCCCN)C(=O)N2C[C@H](O)C[C@H]2C(=O)N[C@@H](Cc2c[nH]c3ccccc23)C(=O)N[C@@H](CCCCN)C(=O)N[C@@H](Cc2cn(CC(=O)O)c3ccccc23)C(=O)N1C` [Example 11216] ({CH2CO}-Y[NMeA]DPHK[Hyp]WK[Trp(1-CH2COOH)][NMeNle][NMeNle]LCGGG-{NH(CH2)12COOH}; thioether N-14), the half-inhibitory concentration (IC50) was 0.01 to 0.099 µM.

In the case of `CCCC[C@H]1C(=O)N(C)[C@@H](CCCC)C(=O)N[C@@H](CC(C)C)C(=O)N[C@H](C(=O)NCC(=O)N[C@@H](CC(=O)O)C(=O)N[C@@H](CC(=O)O)C(=O)NCCCCCCCCCCCCC(=O)O)CSCC(=O)N[C@@H](Cc2ccc(O)cc2)C(=O)N(C)[C@@H](C)C(=O)N[C@@H](CC(N)=O)C(=O)N2CCC[C@H]2C(=O)N[C@@H](CN)C(=O)N[C@@H](CC(C)C)C(=O)N2C[C@H](O)C[C@H]2C(=O)N[C@@H](Cc2c[nH]c3ccccc23)C(=O)N[C@@H](CCN)C(=O)N[C@@H](Cc2cn(CC(=O)O)c3ccccc23)C(=O)N1C` [Example 11217] ({CH2CO}-Y[NMeA]NP[Dap]L[Hyp]W[Dab][Trp(1-CH2COOH)][NMeNle][NMeNle]LCGDD-{NH(CH2)12COOH}; thioether N-14), the IC50 lay within 0.01 to 0.099 µM.

Take `CCCC[C@H]1C(=O)N(C)[C@@H](CCCC)C(=O)N[C@@H](CC(C)C)C(=O)N[C@H](C(=O)NCC(=O)N[C@@H](CC(=O)O)C(=O)N[C@@H](CC(=O)O)C(=O)NCCCCCCCCCCCCC(=O)O)CSCC(=O)N[C@@H](Cc2ccc(O)cc2)C(=O)N(C)[C@@H](C)C(=O)N[C@@H](CC(=O)O)C(=O)N2CCC[C@H]2C(=O)N[C@@H](Cc2cnc[nH]2)C(=O)N[C@@H](CCCCN)C(=O)N2C[C@H](O)C[C@H]2C(=O)N[C@@H](Cc2c[nH]c3ccccc23)C(=O)N[C@@H](CCCCN)C(=O)N[C@@H](Cc2cn(CC(=O)O)c3ccccc23)C(=O)N1C` [Example 11218] ({CH2CO}-Y[NMeA]DPHK[Hyp]WK[Trp(1-CH2COOH)][NMeNle][NMeNle]LCGDD-{NH(CH2)12COOH}; thioether N-14): the IC50 was in the range of 0.01 to 0.099 µM.

With `CCCC[C@H]1C(=O)N(C)[C@@H](CCCC)C(=O)N[C@@H](CC(C)C)C(=O)N[C@H](C(=O)NCCCOCCOCCOCCCNC(=O)CCC(=O)NCCCCCCCCCCCCC(=O)O)CSCC(=O)N[C@@H](Cc2ccc(O)cc2)C(=O)N(C)[C@@H](C)C(=O)N[C@@H](CC(=O)O)C(=O)N2CCC[C@H]2C(=O)N[C@@H](Cc2cnc[nH]2)C(=O)N[C@@H](CCCCN)C(=O)N2C[C@H](O)C[C@H]2C(=O)N[C@@H](Cc2c[nH]c3ccccc23)C(=O)N[C@@H](CCCCN)C(=O)N[C@@H](Cc2cn(CC(=O)O)c3ccccc23)C(=O)N1C` [Example 11219] ({CH2CO}-Y[NMeA]DPHK[Hyp]WK[Trp(1-CH2COOH)][NMeNle][NMeNle]LC-X8; thioether N-14), the half-inhibitory concentration (IC50) lay in the range of 0.01 to 0.099 µM.

`CCCC[C@H]1C(=O)N(C)[C@@H](CCCC)C(=O)N[C@@H](CC(C)C)C(=O)N[C@H](C(=O)NCC(=O)NCC(=O)N[C@@H](CC(=O)O)C(=O)NCCCCCCCCCCCCC(=O)O)CSCC(=O)N[C@@H](Cc2ccc(O)cc2)C(=O)N(C)[C@@H](C)C(=O)N[C@@H](CC(=O)O)C(=O)N2CCC[C@H]2C(=O)N[C@@H](Cc2cnc[nH]2)C(=O)N[C@@H](CCCCN)C(=O)N2C[C@H](O)C[C@H]2C(=O)N[C@@H](Cc2c[nH]c3ccccc23)C(=O)N[C@@H](CCCCN)C(=O)N[C@@H](Cc2cn(CC(=O)O)c3ccccc23)C(=O)N1C` [Example 11220] ({CH2CO}-Y[NMeA]DPHK[Hyp]WK[Trp(1-CH2COOH)][NMeNle][NMeNle]LCGGD-{NH(CH2)12COOH}; thioether N-14): the IC50 was in the range of 0.01 to 0.099 µM.

For `CCCC[C@H]1C(=O)N(C)[C@@H](CCCC)C(=O)N[C@@H](CC(C)C)C(=O)N[C@H](C(=O)NCC(=O)NCC(=O)N[C@@H](CC(=O)O)C(=O)NCCCCCCCCCCCCC(=O)O)CSCC(=O)N[C@@H](Cc2ccc(O)cc2)C(=O)N(C)[C@@H](C)C(=O)N[C@@H](CC(N)=O)C(=O)N2CCC[C@H]2C(=O)N[C@@H](CN)C(=O)N[C@@H](CC(C)C)C(=O)N2C[C@H](O)C[C@H]2C(=O)N[C@@H](Cc2c[nH]c3ccccc23)C(=O)N[C@@H](CCN)C(=O)N[C@@H](Cc2cn(CC(=O)O)c3ccccc23)C(=O)N1C` [Example 11221] ({CH2CO}-Y[NMeA]NP[Dap]L[Hyp]W[Dab][Trp(1-CH2COOH)][NMeNle][NMeNle]LCGGD-{NH(CH2)12COOH}; thioether N-14), the IC50 lay within 0.01 to 0.099 µM.

Take `CCCC[C@H]1C(=O)N(C)[C@@H](CCCC)C(=O)N[C@@H](CC(C)C)C(=O)N[C@H](C(=O)NCC(=O)N[C@@H](CC(=O)O)C(=O)NCC(=O)NCCCCCCCCCCCCC(=O)O)CSCC(=O)N[C@@H](Cc2ccc(O)cc2)C(=O)N(C)[C@@H](C)C(=O)N[C@@H](CC(N)=O)C(=O)N2CCC[C@H]2C(=O)N[C@@H](CN)C(=O)N[C@@H](CC(C)C)C(=O)N2C[C@H](O)C[C@H]2C(=O)N[C@@H](Cc2c[nH]c3ccccc23)C(=O)N[C@@H](CCN)C(=O)N[C@@H](Cc2cn(CC(=O)O)c3ccccc23)C(=O)N1C` [Example 11223] ({CH2CO}-Y[NMeA]NP[Dap]L[Hyp]W[Dab][Trp(1-CH2COOH)][NMeNle][NMeNle]LCGDG-{NH(CH2)12COOH}; thioether N-14): the half-inhibitory concentration (IC50) lay within 0.01 to 0.099 µM.
